{"source": "paper PMC12869562", "about": "(Research Square, 2026)", "assay": "In vitro plasma stability", "format": "in vitro ADME, mouse (C57BL/6)", "settings": "C57BL/6, mouse, read-out: half-life t1/2 (in vitro plasma) (converted)", "method": "Each aliquot (50 μl) was mixed with 150 μl methanol, vortexed, spun, removed the supernatant and reconstituted the pellet with 150 μl 10% formic acid in water. The sample was vortexed and spun and a 100 μl aliquot was taken, diluted 1:1 with 10 mM ammonium bicarbonate, and analyzed by LC-MS/MS. Using the remaining vs. time dataset, we performed a first-order decay analysis by fitting a linear regression to the natural log-transformed percent remaining values (excluding 0% and t = 0 anchor point) to plot the graph.", "note": "No end group written: not given here.", "data": [{"sequence": "SSMKLSFRARAYGFRGPGPQL [CST, Catestatin]", "values": [{"measurement": "half-life at 5 μg/ml", "value": 5.56, "unit": "h"}]}]}
